# Reference: a melting point compilation (Tetko et al.; mined from patent text by program, amines drawn as free bases though some values may be those of a salt)
row,SMILES,melting point
1,CC(=O)NC(COC1CCN(c2nc3ccc(OCC4CC4)cc3o2)CC1)C(F)(F)F (centres undefined),126 to 127 °C
2,CC1CC(=O)NN=C1c1ccc(NN=C(c2ccc(O)cc2O)c2ccc(O)cc2O)cc1 (centres undefined),150 to 175 °C
3,CC(=NNC(=O)c1cccc(C(F)(F)F)c1)c1cccnc1,183 °C
4,COc1cc(NC(=O)c2cccc(CSc3nc(NC(C)=O)n[nH]3)c2)cc(OC)c1OC,196 to 201 °C
5,Cc1c([N+](=O)[O-])c(=O)n(C)c(=O)n1C,152 °C
6,O=[N+]([O-])c1ccc(F)c(Br)c1O,65 to 66 °C
7,CC(C)(COc1ccc(CSC2NC(=O)CC2=O)cc1)c1ccccc1 (centres undefined),107 to 108 °C
8,O=C(NN1CCOCC1)OCCOc1ccc(OCCOC(=O)NN2CCOCC2)cc1,219 to 221 °C
9,CCCCS(=O)(=O)N[C@@H](Cc1ccc(NC(=O)NC(=O)c2ccc(C#N)cc2)cc1)C(=O)OC(C)(C)C,171 to 173 °C
10,CS(=O)(=O)c1ccc(-c2cc(C(=O)c3cccnc3)sc2N2CCOCC2)cc1,122 °C
11,Cc1cc(-c2ccc(S(C)(=O)=O)cc2)n(-c2ccc(-c3ccoc3)cc2)c1C,215 to 219 °C
12,COc1cc(C(=O)c2nc(NC(=O)C(F)(F)F)c3ccccn23)ccc1[N+](=O)[O-],228 °C
13,COc1ccccc1NC(C(N)=O)c1c(Cl)cccc1Cl (centres undefined),192 °C
14,Cc1nn(C)c2cc(-c3ccc4nnn(Cc5ccc6ncccc6c5)c4n3)ccc12,159 to 163 °C
15,COc1cc(/C=C/c2ccc(F)cc2)cc(OC)c1,46 to 48 °C
16,Cc1cccc(C2SCCCS2)n1,74 °C
17,CCOP(=O)(CC(=O)Nc1cc2c(Nc3ccc(Cl)c(Br)c3)ncnc2cn1)OCC,113 to 116 °C
18,CC(C)c1ccc2cc(O)ccc2c1,109 to 110 °C
19,CCCCCCCCCC(=O)c1cn(CCCC(=O)O)c2ccccc12,89 to 90 °C
20,N#Cc1cccc(Oc2ccnc(Cl)c2)n1,114 °C
21,C[C@H]1C(=O)N2[C@H](c3ccc4c(c3)OCO4)c3[nH]c4ccccc4c3C[C@@H]2C(=O)N1C,219 to 220 °C
22,CC(C)C[C@@H](C=O)NC(=O)[C@H](Cc1c[nH]cn1)NC(=O)[C@H](Cc1c[nH]c2ccccc12)NC(=O)OCc1ccccc1,109 to 110 °C
23,Cc1cc2c(c(C)c1NCc1ccccc1)CC(C)(C)O2,80 to 81 °C
24,"CCOC(Cc1ccc(OCCN2CCSc3ccccc32)cc1)C(=O)O (single isomer, unassigned; (-))",110 °C
25,CCn1c(C)nc2cc(S(C)(=O)=O)c(Cl)c(N)c21,179 to 186 °C

row,SMILES,melting point
1,CCc1ncnc(N[C@H]2CC[C@@H](CO)CC2)c1Cl,71 to 72 °C
2,CCCCN(CCCC)C(=O)Nc1ccc(C)cc1C,48 to 50 °C
3,Cc1oc(-c2cc(C(F)(F)F)cc(C(F)(F)F)c2)nc1COc1cccc(CN(O)C(N)=O)c1,150 to 151 °C
4,CCCC(=O)c1c[nH]c2c(OC)cccc2c1=O,200 to 202 °C
5,Clc1ccc(NC2CCCCC2)nn1,161 to 163 °C
6,CN1CC(=O)OC2CCN(C(=O)c3ccc(NC(=O)c4ccccc4Cl)cc3)c3ccccc3C21 (centres undefined),286 to 290 °C
7,COc1ccc(Nc2ccc(Nc3ncnc4cc(-c5ccc(OC)cc5)sc34)cc2)cc1,159 to 169 °C
8,Cc1oc(-c2ccc(Cl)cc2)cc1C(=O)Nc1cc(Cl)ccc1-c1noc(=O)[nH]1,248 to 251 °C
9,O=S(=O)(Cc1ccccc1)c1ccc(Cl)cc1,148 °C
10,O=C(Cl)c1cc([N+](=O)[O-])cc2c1OCCO2,108 °C
11,N#CCc1cccc(Cn2ccc(OCc3ccc(F)cc3F)c(Br)c2=O)c1,120 to 121 °C
12,C=C1c2cccc(NC(=O)c3c(Cl)cccc3Cl)c2OC1(C)OC (centres undefined),208 to 210 °C
13,CCn1ncc2c(NCC3CCCCC3)c3cc(OCC(O)CO)ccc3nc21 (centres undefined),197 to 199 °C
14,O=C(Nc1cccc(S(=O)(=O)Nc2ccccc2)c1)c1cnn2c(C(F)(F)F)cc(-c3ccc(C(F)(F)F)cc3)nc12,258 °C
15,CCc1n[nH]c2c(=O)[nH]c(-c3cc(S(C)(=O)=O)ccc3OCc3ccccn3)nc12,283 to 286 °C
16,CCNC1CC=C(c2c[nH]c3ccc([N+](=O)[O-])cc23)CC1 (centres undefined),177 to 179 °C
17,CC1C(=O)c2c(cc(OCC(=O)O)c(Cl)c2Cl)C1C (centres undefined),174 to 176 °C
18,Fc1ccc(NC(=S)NN2CC=CCC2)cc1,163 to 164 °C
19,CC(=O)Nc1ncc2c(n1)-c1sc(NC(C)=O)nc1CC2,> 310 °C
20,O=C1Cc2ccccc2C(c2ccccc2Cl)N1 (centres undefined),180 to 182 °C
21,COC(=O)C=CC(=O)c1cc(Cl)ccc1N,111 to 112 °C
22,COCc1cccc(CC#N)c1[N+](=O)[O-],34 to 36 °C
23,C=CCNc1nc(NCC=C)c2scc(CC)c2n1,55 °C
24,Oc1cc2c(cc1CCCOc1ccccc1)OC(CCc1ccccc1)C2 (centres undefined),65 to 70 °C
